What was measured:
[1] = biological target: T1, calcium-induced contraction of isolated dog coronary arteries (Canis lupus familiaris, UniProt A0A8I3QY31); assay: calcium antagonism: calcium-induced contraction of isolated dog coronary arteries in depolarizing solution; format: cell-based; conditions: helical strips of dog coronary artery, 100 mM KCl solution, cumulative CaCl2 response curves, drug added 30 min before CaCl2; read-out: pA2 of calcium antagonism (converted)
T1 construct: Branches of the ventral interventricular artery (about 500 to 1000 μm outer diameter) were dissected and cut into helical strips; from tissue; host or cells: helical strips of branches of the ventral interventricular (coronary) artery of mongrel dogs
T1 sequence (A0A8I3QY31 1-2188): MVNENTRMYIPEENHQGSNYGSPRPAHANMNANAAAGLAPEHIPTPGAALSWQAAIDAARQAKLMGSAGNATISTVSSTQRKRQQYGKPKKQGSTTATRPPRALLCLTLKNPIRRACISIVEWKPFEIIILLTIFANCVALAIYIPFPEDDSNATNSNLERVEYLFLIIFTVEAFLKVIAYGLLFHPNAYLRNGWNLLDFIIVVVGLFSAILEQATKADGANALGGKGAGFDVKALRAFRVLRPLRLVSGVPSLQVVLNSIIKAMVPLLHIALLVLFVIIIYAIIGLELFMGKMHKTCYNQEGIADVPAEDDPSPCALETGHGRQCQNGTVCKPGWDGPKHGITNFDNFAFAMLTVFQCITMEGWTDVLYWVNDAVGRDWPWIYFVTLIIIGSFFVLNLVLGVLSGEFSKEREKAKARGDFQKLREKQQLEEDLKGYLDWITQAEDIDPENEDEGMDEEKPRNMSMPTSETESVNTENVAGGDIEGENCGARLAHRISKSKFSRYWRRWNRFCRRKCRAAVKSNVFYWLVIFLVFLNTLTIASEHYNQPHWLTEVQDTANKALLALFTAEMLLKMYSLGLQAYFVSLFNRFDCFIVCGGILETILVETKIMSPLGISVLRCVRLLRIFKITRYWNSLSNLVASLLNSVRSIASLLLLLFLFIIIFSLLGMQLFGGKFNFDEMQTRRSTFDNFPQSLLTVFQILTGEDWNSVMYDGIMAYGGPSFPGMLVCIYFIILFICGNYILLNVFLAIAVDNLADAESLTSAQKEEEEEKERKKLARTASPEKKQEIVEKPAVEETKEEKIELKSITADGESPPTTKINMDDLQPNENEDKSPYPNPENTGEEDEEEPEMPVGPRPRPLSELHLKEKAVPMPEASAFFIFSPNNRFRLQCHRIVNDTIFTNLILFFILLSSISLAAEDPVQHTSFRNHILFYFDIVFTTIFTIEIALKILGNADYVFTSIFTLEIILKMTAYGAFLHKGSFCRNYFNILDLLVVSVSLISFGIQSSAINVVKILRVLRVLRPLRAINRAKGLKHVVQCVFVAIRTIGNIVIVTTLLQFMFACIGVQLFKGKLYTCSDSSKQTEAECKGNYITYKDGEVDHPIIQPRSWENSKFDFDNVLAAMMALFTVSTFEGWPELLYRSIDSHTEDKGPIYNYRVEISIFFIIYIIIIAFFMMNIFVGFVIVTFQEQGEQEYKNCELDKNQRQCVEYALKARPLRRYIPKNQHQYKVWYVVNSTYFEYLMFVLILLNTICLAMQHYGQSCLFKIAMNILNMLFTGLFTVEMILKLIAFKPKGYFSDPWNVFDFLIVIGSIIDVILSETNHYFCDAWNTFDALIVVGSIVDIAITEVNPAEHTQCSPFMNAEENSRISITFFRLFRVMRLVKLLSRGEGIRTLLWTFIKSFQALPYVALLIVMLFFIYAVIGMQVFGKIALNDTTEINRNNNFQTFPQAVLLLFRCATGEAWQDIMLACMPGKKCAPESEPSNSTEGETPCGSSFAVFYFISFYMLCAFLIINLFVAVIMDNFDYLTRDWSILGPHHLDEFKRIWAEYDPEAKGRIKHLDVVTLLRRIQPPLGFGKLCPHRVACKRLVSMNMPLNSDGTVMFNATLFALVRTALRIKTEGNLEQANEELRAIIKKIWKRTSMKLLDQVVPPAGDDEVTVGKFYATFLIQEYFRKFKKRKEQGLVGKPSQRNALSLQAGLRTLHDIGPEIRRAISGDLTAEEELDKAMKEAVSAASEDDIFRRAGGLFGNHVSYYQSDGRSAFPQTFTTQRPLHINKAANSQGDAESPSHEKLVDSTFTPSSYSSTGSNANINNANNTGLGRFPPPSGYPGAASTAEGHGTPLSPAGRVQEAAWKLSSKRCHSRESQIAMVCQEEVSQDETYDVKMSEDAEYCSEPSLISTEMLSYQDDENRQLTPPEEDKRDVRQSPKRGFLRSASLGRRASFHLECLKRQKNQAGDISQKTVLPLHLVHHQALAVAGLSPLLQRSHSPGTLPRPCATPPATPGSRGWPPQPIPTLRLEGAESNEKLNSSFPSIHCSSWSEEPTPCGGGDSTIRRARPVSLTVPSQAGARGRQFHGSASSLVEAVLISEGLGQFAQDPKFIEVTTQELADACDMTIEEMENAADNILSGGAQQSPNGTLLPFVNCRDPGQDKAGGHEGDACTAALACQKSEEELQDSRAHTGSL
Description: First the potency of calcium antagonism was determined on coronary arteries in vitro:
Mongrel dogs of either sex weighing between 15 and 30 kg were anaesthetized by rapid i.v. injection of pentobarbitone (50 mg/kg) and killed by i.v. injection of 100 ml of air. The heart was removed and placed in a modified Krebs-Henseleit solution (mM): NaCl 118, KCl 4.7, MgSo4 1.2, CaCl2 2.5, KH2 PO4 1.2, NaHCO3 25, glucose 11, at 37° C., gassed with 95% O2 -5% CO2. Branches of the ventral interventricular artery (about 500 to 1000 μm outer diameter) were dissected and cut into helical strips, approximately 1 to 3 mm wide and 10 mm long.
The strips were suspended in 10 ml organ baths containing Krebs-Henseleit solution at 37° C. gassed continuously with 5% CO2 in oxygen. Changes in the tension of the strips were recorded isometrically with electromechanical transducers (Statham model UC 3) and a potentiometric recorder. At the beginning of the experiments the strips were stretched to an initial tension of 500 mg and then allowed to equilibrate for 120 to 180 minutes in the bathing medium. Thereafter the Krebs-Henseleit solution was replaced by a solution containing 100 mM KCl in equimolar replacement for NaCl. Cumulative response curves for CaCl2 were established, using the method described by Van Rossum, J. M., Arch. […] The effects were expressed as percentage of the preceding response to […]. […]

[2] = system: anaesthetized open chest cat; assay: hemodynamics in the anaesthetized open chest cat (microsphere method); format: in vivo
Description: This observation was arrived at in the anaesthetized open chest cat as follows:
The microsphere method as described in 1967 by Rudolph, A. M. and Heymann, M. S. in Circ. Res. 21 (1967) 163 and modified by R. P. Hof, F. Wyler and G. Stalder, Basic Res. Cardial. 75, 747-756 (1980) was used. Cardiac output was calculated from the flow signal of an electromagnetic flow meter. […] This consists in sampling blood at a known flow rate into a syringe, which can be regarded as "an external organ".
This sampling is done during the time of microsphere circulation. The number of microspheres in the syringe is then determined and cardiac output can be calculated as follows:
where CO is cardiac output, Qs is flow to the syringe, Ni is the number of spheres injected and Ns is the number of spheres in the syringe.
Cats of 2 to 4 kg of body weight were anaesthetized with chloralose urethane (43 and 430 mg/kg) and ventilated with a Loosco M.K.II infant ventilator with positive end-expiratory pressure. Catheters were inserted into the femoral artery and vein. […] The electromagnetic flow signal and its first derivative, acceleration of the blood in the aorta, mean aortic flow, phasic and mean aortic blood pressure, heart rate and mean right atrial pressure were recorded on a Beckmann R612 8 channel recorder. […] The samples were counted in a Packard Mod. […]

[3] = system: paced guinea pig left atrium; assay: contractility of paced guinea pig left atria in vitro; format: cell-based; conditions: for difference between cardiodepressant concentration and the pA2 of Ca-antagonism: guinea pig atria concentration vs dog coronary artery pA2
Description: (§1) Then the effects on contractility of paced guinea pig left […] in vitro was measured:
(§2) Guinea pigs of either sex weighing 250 to 400 g were killed by a blow on their heads and the left atrium was rapidly dissected from the heart and suspended in a modified oxygenated Tyrode solution at 30° C. The preload was adjusted to 1 g, rectangular impulses of 10 msec. at a rate of 1 Hz were used for pacing through a platinum cathode attached to the lower end of the tissue. The tension developed was measured isometrically with a Statham UC 3 transducer.

[4] = biological target: T2, paced guinea pig left atrium (Cavia porcellus, UniProt O35505); assay: as above; format: cell-based; conditions: guinea pig; highest dose 0.444 μM; paced 1 Hz, 30° C.; read-out: contractile force, % of its baseline value
T2 construct: the left atrium was rapidly dissected from the heart and suspended in a modified oxygenated Tyrode solution; from tissue; host or cells: isolated left atrium of guinea pig
T2 sequence (O35505 whole entry): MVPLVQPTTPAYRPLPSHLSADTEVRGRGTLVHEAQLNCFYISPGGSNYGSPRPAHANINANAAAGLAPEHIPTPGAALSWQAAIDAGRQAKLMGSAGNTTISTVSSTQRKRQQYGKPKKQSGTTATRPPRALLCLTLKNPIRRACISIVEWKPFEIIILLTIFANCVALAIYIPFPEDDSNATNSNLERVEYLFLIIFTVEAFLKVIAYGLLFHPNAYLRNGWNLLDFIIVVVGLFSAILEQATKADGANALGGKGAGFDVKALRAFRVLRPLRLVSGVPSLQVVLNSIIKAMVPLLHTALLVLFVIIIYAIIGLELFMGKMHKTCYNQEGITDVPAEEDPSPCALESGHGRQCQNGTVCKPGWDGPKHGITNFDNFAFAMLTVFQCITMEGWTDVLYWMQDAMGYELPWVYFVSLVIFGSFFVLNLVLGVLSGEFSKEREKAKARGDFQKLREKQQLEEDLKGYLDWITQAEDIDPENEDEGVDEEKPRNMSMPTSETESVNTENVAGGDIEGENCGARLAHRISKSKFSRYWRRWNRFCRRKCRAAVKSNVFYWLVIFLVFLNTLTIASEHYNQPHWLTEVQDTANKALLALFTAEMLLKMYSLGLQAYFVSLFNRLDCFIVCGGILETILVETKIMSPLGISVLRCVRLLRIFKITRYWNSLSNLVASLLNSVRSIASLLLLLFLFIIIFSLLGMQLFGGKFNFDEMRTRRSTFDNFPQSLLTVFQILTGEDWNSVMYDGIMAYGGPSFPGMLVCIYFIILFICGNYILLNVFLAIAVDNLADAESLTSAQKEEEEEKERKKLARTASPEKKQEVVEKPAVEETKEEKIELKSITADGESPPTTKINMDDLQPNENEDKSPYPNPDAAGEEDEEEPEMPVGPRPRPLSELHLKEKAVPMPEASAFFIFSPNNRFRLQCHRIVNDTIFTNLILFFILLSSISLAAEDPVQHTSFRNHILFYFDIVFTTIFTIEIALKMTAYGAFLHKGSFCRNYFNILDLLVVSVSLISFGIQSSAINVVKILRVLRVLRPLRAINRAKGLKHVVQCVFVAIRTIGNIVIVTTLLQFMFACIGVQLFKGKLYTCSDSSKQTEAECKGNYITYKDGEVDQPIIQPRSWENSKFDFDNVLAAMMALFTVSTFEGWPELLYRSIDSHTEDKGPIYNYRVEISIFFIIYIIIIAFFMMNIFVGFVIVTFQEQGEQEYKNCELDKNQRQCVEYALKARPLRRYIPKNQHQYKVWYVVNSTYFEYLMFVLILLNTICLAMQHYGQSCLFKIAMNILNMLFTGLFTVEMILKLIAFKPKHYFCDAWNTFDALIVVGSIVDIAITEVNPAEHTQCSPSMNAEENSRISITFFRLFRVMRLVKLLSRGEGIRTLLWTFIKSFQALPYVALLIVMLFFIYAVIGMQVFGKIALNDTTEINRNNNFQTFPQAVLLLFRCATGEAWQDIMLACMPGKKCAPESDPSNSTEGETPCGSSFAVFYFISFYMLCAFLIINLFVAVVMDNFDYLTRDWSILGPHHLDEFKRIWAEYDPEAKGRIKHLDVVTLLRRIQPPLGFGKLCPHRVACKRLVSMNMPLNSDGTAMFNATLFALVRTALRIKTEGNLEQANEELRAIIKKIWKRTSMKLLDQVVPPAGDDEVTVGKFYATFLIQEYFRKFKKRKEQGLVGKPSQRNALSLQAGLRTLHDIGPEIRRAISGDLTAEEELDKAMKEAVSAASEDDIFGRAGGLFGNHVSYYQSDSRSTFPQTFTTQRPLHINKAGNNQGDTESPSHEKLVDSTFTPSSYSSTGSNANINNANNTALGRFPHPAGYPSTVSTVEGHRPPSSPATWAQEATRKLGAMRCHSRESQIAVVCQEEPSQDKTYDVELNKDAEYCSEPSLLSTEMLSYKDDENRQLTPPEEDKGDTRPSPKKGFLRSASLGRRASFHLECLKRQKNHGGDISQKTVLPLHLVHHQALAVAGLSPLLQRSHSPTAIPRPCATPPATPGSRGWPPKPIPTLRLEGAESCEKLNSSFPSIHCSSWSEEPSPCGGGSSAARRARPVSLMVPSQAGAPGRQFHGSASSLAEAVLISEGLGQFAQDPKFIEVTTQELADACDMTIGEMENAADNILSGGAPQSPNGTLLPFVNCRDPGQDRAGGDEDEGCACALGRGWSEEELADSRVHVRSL
Description: as §1, §2

[5] = system: β-adrenoceptor; assay: adequacy of betablockade checked with isoproterenol test dose in the anaesthetized open chest cat; format: in vivo; conditions: LT 50 μg/kg i.v.; isoproterenol 0.05 μg/kg before, 0.1 μg/kg after betablockade
Description: Cats of 2 to 4 kg of body weight were anaesthetized with chloralose urethane (43 and 430 mg/kg) and ventilated with a Loosco M.K.II infant ventilator with positive end-expiratory pressure. Catheters were inserted into the femoral artery and vein. The thorax was opened through the left fourth intercostal space, the aorta was freed of its adventitia and an electromagnetic flow probe was placed around it. The electromagnetic flow signal and its first derivative, acceleration of the blood in the aorta, mean aortic flow, phasic and mean aortic blood pressure, heart rate and mean right atrial pressure were recorded on a Beckmann R612 8 channel recorder. For flow measurements a Narco RT500 flowmeter was used. Differentiation was performed by a HSE 401 differentiator. The flow signal, which is a measurement of the velocity of blood in the aortic root was electronically integrated to obtain mean aortic flow. At the same time this signal was fed into the differentiator mentioned. The output of the differentiator, acceleration of blood in the aorta, is an indicator of myocardial function and was used instead of dp/dt (R. R. Rushmer, Circulation 29 [1964] 268, G. C. Van den Bos et al., Cardiovascular Research 7 [1973] 834), applied to cats by R. P. Hof and A. Hof, Journal of Pharmacological Methods, accepted for publication in 1981. […] The samples were counted in a Packard Mod. […]

Row | Compound | Kb [1] [nM] | coronary blood flow ([2]; 43 μg/kg i.v., no pretreatment) | general hemodynamic parameters (acceleration of blood, cardiac output, heart rate, coronary flow) after β-blocker pretreatment ([2]; compound No. 22 43 μg/kg i.v., 60 minutes after LT 50 μg/kg i.v.) | difference between cardiodepressant concentration and the pA2 of Ca-antagonism [3] | times less cardiodepressant than Verapamil for a similar degree of calcium antagonism ([3]; relative to Verapamil) | activity at 0.444 µM [4] [%] | suppression of isoproterenol effects [5]
1 | CCOC(=O)C1=C(C)NC(C)=C(C(=O)OCC)C1c1cccc2nonc12 [compound No. 22] | 0.0316 | markedly increased | strikingly similar to those without pretreatment | about 10,000 fold | about 100 times | 56 | 
2 | COc1ccc(CCN(C)CCCC(C#N)(c2ccc(OC)c(OC)c2)C(C)C)cc1OC (stereo not drawn) [Verapamil, reference compound] | 15.8 |  |  | about 100 fold |  |  | 
3 | Cc1cc2c(OCC(CNC(C)(C)C)OC(=O)c3ccccc3)cccc2[nH]1 (stereo not drawn) [LT, 4-(2-benzoyloxy-3-tert-butylaminopropoxy)-2-methylindole] |  |  |  |  |  |  | completely or almost completely suppressed

Source: patent publication US4510150A, “Pharmaceutical compositions effective against coronary heart disease and hypertension” (Sandoz Ltd., priority 1980, dated 1985)
